Where a SMILES comes first, the peptide text is derived from it. [ ]: non-standard residue; d: D form. pT = C[C@@H](OP(=O)(O)O)[C@H](N)C(=O)O; 2Nal = N[C@@H](Cc1ccc2ccccc2c1)C(=O)O; Bta = N[C@@H](Cc1csc2ccccc12)C(=O)O; Pip = O=C(O)[C@@H]1CCCCN1
Tests used:
Pin1 [1] = target: T1, Pin1 (Homo sapiens, UniProt Q13526); assay: Pin1 inhibition by retinoids in a cell culture model; format: cell-based
T1 construct: We performed FP-HTS in a 384-well plate format with full length Pin1
Experimental: As trans-RA is selected as the current lead compound, it is important to identify the essential moiety of RAs on Pin1 interaction for further lead optimization. Many commercially available retinoids were tested for Pin1 inhibition. […] Other RA compounds that are metabolized to contain an end carboxylic group are also likely to be useful in treating proliferative disorders (FIG. 10D). In addition, compounds that modulate the retinoic acid receptor (FIGS. 10D and 11A and compounds listed in Table 1) are also likely to be useful in treating proliferative disorders.

Pin1 [2] = target: T1, Pin1; assay: single-step fluorescence polarization-based displacement assay (FP-HTS); format: binding
Experimental: We used the FP-HTS with a 5 nM probe and 200 nM Pin1 to conduct a pilot screen on a selected set of chemical libraries.

Pin1 [3] = target: T1, Pin1; assay: PPIase assay; format: biochemical; conditions: dose-dependent manner
Experimental: (§1) We used the FP-HTS with a 5 nM probe and 200 nM Pin1 to conduct a pilot screen on a selected set of chemical libraries. We obtained the resulting potential positive hits and grouped them into 3 classes according to the Z-score, which is folds of standard deviation below the mean. […] 1) cis-RA is not listed in promiscuous inhibitor databases 2) all-trans retinoic acid (trans-RA), the pairing compound of cis-RA, is currently used as oral prescription for patients with acute promyelocytic leukemia […]; 3) both cis-RA and trans-RAs are used as a medication in the phase II/III clinical trial for breast cancer, and more because of its ability to kill rapidly dividing cells; and 4) although it has been reported that RAs target on retinoic acid receptor (RAR), the exact mechanism of the anticancer action is unknown. As a result, we examined whether the anti-cancer effect of RAs depends on RAR in the breast cancer cells. […] In the PPIase assay, Pin1 activity was blocked by either cis- or trans-RA in a dose-dependent manner (FIG. 4).

Pin1 and DAPK1 = Pin1 and DAPK1 (Homo sapiens, UniProt Q13526); assay: association between Pin1 and DAPK1 (competition); format: binding; conditions: dose-dependent manner, trans being more potent
breast cancer cells = assay: cis-RA-mediated cell death with RARα knockdown; format: cell-based
SKBR3 = assay: cell viability; format: cell-based, human
Source text: (§2) This discrepancy between cell lines was correlated with the RAs' ability to suppress Pin1 expression. Pin1 level was decreased by treatment of RAs in drugs-responsive SKBR3 and T47D, but not in drugs-irresponsive normal cells, MCF10A (FIG. 7B), in which Pin1 target protein, cyclin D1, was served as biomarkers of in vivo Pin1 activity. […] To further confirm this premise, wild-type mouse embryonic fibroblast (WT MEF) and Pin1 knockout MEF (Pin1 KO MEF) were used to test trans-RA-mediated cell viability (FIGS. 9A-C). […] In addition, Pin1 KO MEF stably expressing WT Pin1, but not W34/K63A Pin1 mutant, enabled cells to re-sensitize trans-RA.

MCF10A = assay: cell viability; format: cell-based; conditions: normal cell line MCF10A
Source text: as §2

T47D = assay: cell viability; format: cell-based
Source text: as §2

[4] = system: Pin1 K63A, S67E, R68/69A, H59A or S71E; assay: trans-RA binding to Pin1 point mutants; conditions: point mutations K63A
Experimental: as §1

WT MEF and Pin1 KO MEF = assay: trans-RA-mediated cell viability in MEF; format: cell-based, mouse
Source text: as §2

T1 sequence (Q13526 whole entry): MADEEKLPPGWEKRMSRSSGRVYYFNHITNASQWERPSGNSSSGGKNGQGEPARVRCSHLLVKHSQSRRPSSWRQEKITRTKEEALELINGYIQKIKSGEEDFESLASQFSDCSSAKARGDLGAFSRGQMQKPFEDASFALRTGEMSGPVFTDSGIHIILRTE
Pin1 and DAPK1, sequence (Q13526 whole entry): as above

SMILES | Pin1 inhibition (Pin1 [1]) | Pin1 activity (Pin1 [3]) | association between Pin1 and DAPK1 (Pin1 and DAPK1) | IC50 (cell viability) (SKBR3) | cell viability (MCF10A) | IC50 (cell viability) (T47D) | other results
CCCCCCCCc1ccc(-c2ccc(C(=O)O)cc2)cc1 [AC-55649] | maintained Pin1 inhibition |  |  |  |  |  | 
COc1cc(C)c(/C=C/C(C)=C/C=C/C(C)=C/C(=O)O)c(C)c1C [acitretin] | maintained Pin1 inhibition |  |  |  |  |  | 
CC1=C(/C=C/C(C)=C/C=C/C(C)=C\C(=O)O)C(C)(C)CCC1 [cis-RA, (2Z,4E,6E,8E)-3,7-dimethyl-9-(2,6,6-trimethylcyclohexen-1-yl)nona-2,4,6,8-tetraenoic acid] | maintained Pin1 inhibition | blocked | blocked | nano-molar range | remained unaffected | nano-molar range | pilot screen hit class according to Z-score (Pin1 [2]; 5 nM probe and 200 nM Pin1): top strong chemical; Pin1 inhibition in the FP assay (Pin1 [2]; long-term incubation with Pin1): eventually catch up with trans-RA; rescue of cis-RA-mediated cell death (breast cancer cells): only partially rescue
C[C@@H](OP(=O)(O)O)[C@H](NC(=O)[C@@H](N)Cc1csc2ccccc12)C(=O)N1CCCC[C@H]1C(=O)N[C@@H](Cc1ccc2ccccc2c1)C(=O)O [pTide, Bth-L-phos.Thr-Pip-Nal] (H-[Bta][pT][Pip][2Nal]-OH; N-terminus and C-terminus assumed) |  |  |  |  |  |  | displacement of HF488 probe from Pin1 (Pin1 [2]): displaced
CC1=C(/C=C/C(C)=C/C=C/C(C)=C/C(=O)O)C(C)(C)CCC1 [trans-RA, (2E,4E,6E,8E)-3,7-dimethyl-9-(2,6,6-trimethylcyclohexen-1-yl)nona-2,4,6,8-tetraenoic acid] | maintained Pin1 inhibition | blocked | blocked | nano-molar range | remained unaffected | nano-molar range | Pin1 inhibition in the FP assay (Pin1 [2]; compared with cis-RA): more prominent Pin1 inhibition than cis-RA; trans-RA binding to Pin1 [4]: completely or significantly abolished; cell viability (WT MEF and Pin1 KO MEF; Pin1 KO MEF compared with WT MEF): more resistant; cell viability (WT MEF and Pin1 KO MEF; Pin1 KO MEF stably expressing WT Pin1): re-sensitize
